From ChEMBL document CHEMBL1140430, “Novel indole-based peroxisome proliferator-activated receptor agonists: design, SAR, structural biology, and biological activities” (J Med Chem, 2005) come the findings set out here.

In series [1] the target is T1, Peroxisome proliferator-activated receptor gamma (Homo sapiens, UniProt P37231).
T1 sequence (P37231 whole entry): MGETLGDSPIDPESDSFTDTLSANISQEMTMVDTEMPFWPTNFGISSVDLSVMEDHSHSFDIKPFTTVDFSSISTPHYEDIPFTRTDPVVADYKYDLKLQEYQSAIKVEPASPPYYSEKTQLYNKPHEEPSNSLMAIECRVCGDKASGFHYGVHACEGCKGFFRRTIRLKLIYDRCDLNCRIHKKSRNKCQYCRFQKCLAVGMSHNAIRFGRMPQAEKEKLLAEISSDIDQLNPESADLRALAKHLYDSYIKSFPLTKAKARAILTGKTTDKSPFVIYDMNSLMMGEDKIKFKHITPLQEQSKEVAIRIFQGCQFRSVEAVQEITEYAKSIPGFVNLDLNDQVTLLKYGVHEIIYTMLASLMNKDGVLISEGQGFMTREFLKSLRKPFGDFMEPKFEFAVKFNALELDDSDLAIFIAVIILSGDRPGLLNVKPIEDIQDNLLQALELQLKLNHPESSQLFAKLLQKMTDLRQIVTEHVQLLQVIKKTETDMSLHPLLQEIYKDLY
Description: Displacement of [3H]rosiglitazone from human PPAR gamma by SPA assay

The target of series [2] is T2, Peroxisome proliferator-activated receptor delta (Homo sapiens, UniProt Q03181).
T2 sequence (Q03181 whole entry): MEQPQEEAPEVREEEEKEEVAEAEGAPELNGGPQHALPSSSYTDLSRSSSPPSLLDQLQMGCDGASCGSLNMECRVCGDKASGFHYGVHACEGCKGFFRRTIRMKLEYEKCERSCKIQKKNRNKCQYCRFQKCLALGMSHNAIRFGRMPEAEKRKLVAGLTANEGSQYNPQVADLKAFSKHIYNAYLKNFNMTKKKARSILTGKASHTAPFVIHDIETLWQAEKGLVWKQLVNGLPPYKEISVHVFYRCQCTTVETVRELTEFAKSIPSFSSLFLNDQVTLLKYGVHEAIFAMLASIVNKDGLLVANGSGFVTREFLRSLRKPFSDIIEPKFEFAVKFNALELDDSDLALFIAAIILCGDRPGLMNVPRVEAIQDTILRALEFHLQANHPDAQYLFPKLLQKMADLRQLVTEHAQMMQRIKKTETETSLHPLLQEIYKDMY
Description: Functional activity at human PPAR delta in Huh7 cells by transactivation assay

For series [3], the target named is T1, Peroxisome proliferator-activated receptor gamma. The format is functional, cell-based, Huh-7.
Description: Functional activity at human PPAR gamma in Huh7 cells by transactivation assay
For series [4], the target named is T3, Peroxisome proliferator-activated receptor alpha (Homo sapiens, UniProt Q07869).
T3 sequence (Q07869 whole entry): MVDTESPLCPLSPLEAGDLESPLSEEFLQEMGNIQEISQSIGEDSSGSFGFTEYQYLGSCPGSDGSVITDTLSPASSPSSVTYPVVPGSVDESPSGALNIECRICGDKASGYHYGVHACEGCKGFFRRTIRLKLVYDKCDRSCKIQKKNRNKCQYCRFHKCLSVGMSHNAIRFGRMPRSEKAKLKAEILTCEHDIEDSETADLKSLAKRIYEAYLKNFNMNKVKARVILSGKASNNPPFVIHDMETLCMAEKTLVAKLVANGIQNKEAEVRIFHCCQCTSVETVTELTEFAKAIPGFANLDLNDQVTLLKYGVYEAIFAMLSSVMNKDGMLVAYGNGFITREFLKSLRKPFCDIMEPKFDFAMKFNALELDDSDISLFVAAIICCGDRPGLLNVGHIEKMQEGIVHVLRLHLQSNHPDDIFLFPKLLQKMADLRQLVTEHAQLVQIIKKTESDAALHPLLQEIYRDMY
Description: Functional activity at human PPAR alpha in Huh7 cells by transactivation assay. Type of series: cell-based, Huh-7.

Series [5] has as its system Mus musculus. Briefly: Effect on reduction of plasma glucose in orally dosed KKAy/TaJcl mice at 30 mg/kg in a 10 day study. Type of series: functional, organism-based. More on the design: dose 30 mg/kg.
Series [6] has as its system Mus musculus. Description: Effect on reduction of plasma glucose in orally dosed KKAy/TaJcl mice at 10 mg/kg in a 10 day study. Type of series: functional, organism-based. On the set-up: dose 10 mg/kg.
Series [7] in a line: Time taken to achieve maximum concentration in male BALB/c mice administered with 35 mg/kg, po. Type of series: ADME, organism-based. On the set-up: dose 35 mg/kg, route oral. Particulars: mouse, in vivo.
A short description of series [8]: Half life in male BALB/c mice administered with 9.7 mg/kg, iv. The format is ADME, organism-based. More on the design: dose 9.7 mg/kg, route intravenous. Particulars: mouse, in vivo.
A short description of series [9]: Area under curve (0-24) in male BALB/c mice administered with 35 mg/kg, po. Type of series: ADME, organism-based. On the set-up: dose 35 mg/kg, route oral. Particulars: mouse, in vivo.
Series [10] is described as follows: Area under curve (0-24) in male BALB/c mice administered with 9.7 mg/kg, iv. Type of series: ADME, organism-based. More on the design: dose 9.7 mg/kg, route intravenous. Particulars: mouse, in vivo.
The nature of series [11]: Clearance in male BALB/c mice administered with 9.7 mg/kg, iv. Type of series: ADME, organism-based. More on the design: dose 9.7 mg/kg, route intravenous. Particulars: mouse, in vivo.
Series [12] in a line: Maximum concentration in male BALB/c mice administered with 35 mg/kg, po. The format is ADME, organism-based. More on the design: dose 35 mg/kg, route oral. The note with it: mouse, in vivo.
Series [13] in a line: Half life in male BALB/c mice administered with 35 mg/kg, po. The format is ADME, organism-based. On the set-up: dose 35 mg/kg, route oral. Particulars: mouse, in vivo.
Series [14] can be described thus: Oral bioavailability in male BALB/c mice administered with 35 mg/kg, po. Type of series: ADME, organism-based. Particulars: mouse, in vivo.
A short description of series [15]: Volume of distribution in male BALB/c mice administered with 9.7 mg/kg, iv. The format is ADME, organism-based. On the set-up: dose 9.7 mg/kg, route intravenous. Particulars: mouse, in vivo, read-out: Vss.

pEC50, pIC50: −log10 of the molar value. The source made the active and inactive calls.

`CCCc1c(OCCCCOc2cccc3c2ccn3CC(=O)O)ccc2c(C(F)(F)F)noc12`: the pIC50 (usually −log10 of the IC50, conventionally taken in molar units) in [1] was 6.11. Further, the pEC50 – broadly, the negative decadic logarithm of the EC50, by convention in mol/L – is under 5.00 in [2], 5.70 in series [3] and under 5.00 in series [4].

Turning to `CCCc1c(OCCCOc2ccc3c(ccn3Cc3nn[nH]n3)c2)ccc2c(C(F)(F)F)noc12`, the pIC50 in [1] was 5.95. The pEC50 was 6.43 in [2], 6.05 in [3] and 6.32 in [4].

With `CCCc1c(OCCCOc2cccc3c2ccn3CC(=O)O)ccc2c(C(F)(F)F)noc12`, the pIC50 in series [1] was 5.70. Besides, the pEC50 in series [2] is 6.21; in series [3], 5.62; in [4], 6.73.

For `CCCc1c(OCCCOc2ccc3c(ccn3CC(=O)O)c2)ccc2c(C(F)(F)F)noc12` [listing 1 of 2 here], the outcome in the series with Mus musculus [5] and in the series on Mus musculus [6] was Active.

Consider `CCCc1c(OCCCOc2ccc3c(ccn3CC(=O)O)c2)ccc2c(-c3ccccc3)noc12`, for which the pIC50 in [1] is 6.92. Further, the values for the pEC50 in [2], in series [3] and in series [4] were 7.10, 6.54 and 7.74, respectively.

The compound `CCCc1c(OCCCOc2ccc3c(ccn3CCC(=O)O)c2)ccc2c(C(F)(F)F)noc12` had a pIC50 in [1] of 6.23. The negative-log EC50 (pEC50) in series [3] was 5.92.

For `CCCc1c(OCCCOc2ccc3ccn(CC(=O)O)c3c2)ccc2c(C(F)(F)F)noc12`, the pIC50 in series [1] was 5.98. Moreover, the values for the pEC50 in [2], in series [3] and in series [4] were 7.10, 5.87 and 5.74, respectively.

In series [1], `CCCc1c(OCCCOc2cccc3c2ccn3C(CC)C(=O)O)ccc2c(C(F)(F)F)noc12` (stereo not drawn) gave a pIC50 of 5.89. This compound gave a pEC50 in series [3] of under 5.00.

For `CCCc1c(OCCCOc2ccc3c(ccn3CC(=O)O)c2)ccc2c(C(F)(F)F)noc12` [listing 2 of 2 here], the pEC50 in series [4] is 7.85.

`CCCc1c(OCCCOc2cccc3c2ccn3CC(=O)O)ccc2c(-c3ccccc3)noc12`: in [1], the pIC50 was 6.90. Besides, the pEC50 in [2] was 6.49; in series [3] it was 6.37; in series [4], 8.70.

In turn, `CCCc1c(OCCCOc2cccc3c2ccn3CC(=O)O)ccc2cc(-c3ccccc3)[nH]c12` had a pIC50 in series [1] of 5.77. Besides, the values for the pEC50 in [2], in series [3] and in series [4] were 5.48, 5.55 and 6.30, respectively.

In the case of `CCCc1c(OCCOc2ccc3c(ccn3CC(=O)O)c2)ccc2c(C(F)(F)F)noc12`, the negative-log IC50 (pIC50) in [1] is 6.37. The pEC50 in [2] is 6.90; in series [3] it was 6.16; in [4], 6.51.

Take `CCCc1c(OCCCCOc2ccc3c(ccn3CC(=O)O)c2)ccc2c(C(F)(F)F)noc12`: in series [1], the negative logarithm of the IC50 (pIC50) is 6.98. Moreover, the pEC50 in series [2] was 6.61; in series [3], 6.55; in [4], 5.98.

Regarding `CCCc1c(OCCCOc2ccc3c(ccn3CC(=O)[O-])c2)ccc2c(C(F)(F)F)noc12.[Na+]`, in [7], the Tmax (in general, the time at which the peak concentration occurs) came out at 4.7 h. Also, the half-life (as a rule, the time needed for the level to fall by half in the phase considered) in series [8] was 6.9 h; in series [13], 7.8 h. The AUC – broadly, the area under the concentration-time curve, a measure of exposure – in [9] was 652 µg·h/mL; in [10] it was 181 µg·h/mL. The clearance (commonly the rate of elimination divided by the concentration) in series [11] was 0.9 mL/min/kg. Moreover, the Cmax (commonly the maximum level reached in the sampled fluid or tissue) in series [12] is 59 µg/mL. Moreover, the bioavailability (usually the share of a dose that reaches the circulation, judged against a reference dose that is usually intravenous) in series [14] amounted to 100%. Moreover, the Vd in series [15] came to 0.4 L/kg.

`CCCc1c(OCCCOc2cccc3c2ccn3CCC(=O)O)ccc2c(C(F)(F)F)noc12`: the pIC50 in series [1] is 5.96. The pEC50 in series [3] is 5.66.

Regarding `CCCc1c(OCCC(C)CCOc2cccc3c2ccn3CC(=O)O)ccc2c(C(F)(F)F)noc12` (stereo not drawn), the pIC50 in [1] was 5.84. The pEC50 in series [3] is under 5.00.

In the case of `CCCc1c(OCCCCCOc2ccc3c(ccn3CC(=O)O)c2)ccc2c(C(F)(F)F)noc12`, in [1], the pIC50 was 5.98. The pEC50 in [3] was 5.83.

In series [1], `CCCc1c(OCCCCCOc2cccc3c2ccn3CC(=O)O)ccc2c(C(F)(F)F)noc12` gave a pIC50 of 5.75. In series [3], this compound gave a pEC50 of under 5.00.

On to `CCCc1c(OCCCOc2cccc3c2ccn3CC(=O)O)ccc2cc(-c3ccccc3)oc12`, for which the pIC50 in series [1] was 5.71. Further, the pEC50 in [2] was 5.11; in series [3], under 5.00; in series [4], under 5.00.

`CCCc1c(OCCCOc2ccc3c(ccn3C(CC)C(=O)O)c2)ccc2c(C(F)(F)F)noc12` (stereo not drawn) gave a negative logarithm of the IC50 (pIC50) in [1] of 5.77. In [3], this compound gave a pEC50 of 5.23.

Regarding `CCCc1c(OCCCOc2cccc3c2ccn3CC(=O)O)ccc2cc[nH]c12`, the pIC50 in series [1] is 5.32. Besides, the pEC50 was 6.38 in [2], 5.74 in series [3] and 5.92 in series [4].

As to `CCCc1c(OCCC(C)CCOc2ccc3c(ccn3CC(=O)O)c2)ccc2c(C(F)(F)F)noc12` (stereo not drawn), the negative-log IC50 (pIC50) in [1] is 5.86. The same compound gave a pEC50 in [3] of under 5.00.

Consider `CCCc1c(OCCOc2cccc3c2ccn3CC(=O)O)ccc2c(C(F)(F)F)noc12`, for which the pIC50 in [1] is 5.83. In series [3], the pEC50 is under 5.00.

Consider `CCCc1c(OCCCOc2cccc3c2ccn3CC(=O)O)ccc2c(-c3ccccc3)coc12`, for which, in [1], the pIC50 was 5.40. Moreover, the pEC50 in series [2] was 5.67; in series [3], 5.38; in series [4] it was 6.77.

On to `CCCc1c(OCC(C)COc2cccc3c2ccn3CC(=O)O)ccc2c(C(F)(F)F)noc12` (stereo not drawn), for which, in [1], the pIC50 was 5.89. This compound also had a pEC50 in [3] of 5.52.

The compound `CCCc1c(OCCCOc2ccc3c(ccn3CC(=O)O)c2)ccc2c(C(=O)C(F)(F)F)c[nH]c12` had a pIC50 in series [1] of 5.62. Also, the pEC50 is 5.04 in [2], under 5.00 in [3] and 5.66 in [4].

As for `CCCc1c(OCCCOc2ccc3c(ccn3CC(=O)O)c2)ccc2c(C#N)c[nH]c12`, the pIC50 in series [1] is 6.12. In addition, the pEC50 in [2] is 5.58; in series [3], 5.04; in [4] it was 5.28.
